The results in this text go back to PMC10386886, “First-in-class multifunctional TYMS nonclassical antifolate inhibitor with potent in vivo activity that prolongs survival” (JCI Insight, 2023).

One data set has as its target T1, DHFR (Homo sapiens, UniProt P00374).
T1 construct: purchased Sigma D6566 (kit CS0340)
T1 sequence (P00374 1-187): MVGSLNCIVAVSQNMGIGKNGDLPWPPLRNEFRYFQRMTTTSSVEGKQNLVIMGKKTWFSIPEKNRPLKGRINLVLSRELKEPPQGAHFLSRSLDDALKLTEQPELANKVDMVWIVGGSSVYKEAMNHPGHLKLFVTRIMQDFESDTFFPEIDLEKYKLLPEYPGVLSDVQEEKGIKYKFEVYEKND
Kind of data set: Absorbance-based DHFR activity assay. The format is biochemical. As to conditions: Figure 6D.

Data set [1] has as its system Luc-PANC-1 xenograft tumors. Kind of data set: Luc-PANC-1 subcutaneous xenograft tumor model. It counts as in vivo. As to conditions: 25 mg/kg PO, 4 cycles, Figure 9. An excerpt: In the subcutaneous tumor model, the resulting Luc-PANC-1 xenograft tumors were monitored by direct tumor measurements and bioluminescence photon flux that is proportional to tumor size. […] Treatment was initiated 30 days after Luc-PANC-1 cell line subcutaneous injections (5 × 10^6 cells), when tumors reached 100 mm^3 in volume, generating a bioluminescence photon flux of 3 × 10^9 to 4 × 10^9 photons/s. […] Tumors from both treatment groups were excised, and the tumor mass was weighed (Figure 2E).
Luc-PANC-1 (5 × 10^6) and Luc-CM (0.5 × 10^6) cells were resuspended in 200 μL of PBS and injected subcutaneously or IP, respectively, into 6- to 8-week-old NSG mice. Tumor-bearing mice were imaged using Xenogen IVIS Lumina Bioluminescence Imaging System (PerkinElmer) every week after cell injection. […] For all animals, body weight was recorded weekly, and Luc-PANC-1 tumor volume was measured weekly with a caliper. For scheduled sacrifice experiments, animals were euthanized after 4 weeks of treatment. […] Tumor volume was calculated as volume = 0.52(length × width^2).
Prior to bioluminescence imaging the region where tumors were located was shaved. […] Following the injection of the D-luciferin substrate mice, were imaged using the Xenogen IVIS Lumina Bioluminescence Imaging System (PerkinElmer). The peak of luciferase photon flux was recorded 6 minutes after injection of the D-luciferin substrate. The total photon flux was analyzed and restricted to tumor region of interest using Living Image v2.60.1 software (Imaging Systems).

Another data set addresses T2, purified human TYMS (Homo sapiens, UniProt P04818).
T2 construct: 6xHis (N); made in house; host or cells: E. coli BL21 (DE3), vector pQE80L-hTYMS
Briefly: Competitive drug displacement assay (tritium TYMS assay). The format is biochemical. As to the method:
For these experiments the TYMS protein was first incubated with each drug, and the reaction was then initiated by addition of 5,10-mTHF and dUMP using different concentrations of either 5,10-mTHF or dUMP to change the substrate/drug ratio. If there was competition between one of the substrates and the drug for the same binding site, then increasing the substrate concentration would displace more of the prebound drug and shift the equilibrium toward the enzyme/substrate complex, thus allowing the conversion of dUMP to proceed (Figure 7A). […]
all components including 2 µg TYMS protein to show the range of the assay, the background signal, and the dependence on 5,10-mTHF (Supplemental Figure 2C). To determine the signal from the [5-3H]dUMP tracer used in each reaction the same amount of the dUMP substrate with the [5-3H]dUMP tracer accounting for 0.06% of the final dUMP concentration was added directly to 5 mL of ultima gold liquid scintillation cocktail (Supplemental Figure 2C).
All reactions were performed in biological duplicate and technical duplicate. Results were analyzed using GraphPad Prism 9.
Competitive drug displacement assay
The tritium based TYMS catalytic activity assay was modified to determine if TYMS inhibition from 19-S, 19-S5, and 19-S7 was the result of competitive binding with either the dUMP substrate or the 5,10-mTHF cofactor. The competitive drug displacement assay utilized the standard reaction conditions for the tritium-based TYMS catalytic activity assay including 40 µM dUMP (Sigma Aldrich, Cat # D3876) with the [5- 3H]dUMP tracer (ViTrax, VT122) accounting for 0.06% of the final dUMP concentration and 100 µM 5,10- methylene tetrahydrofolate (defined as 1x dUMP and 1x 5,10-mTHF). Concentrations of total dUMP and 5,10- mTHF were then changed relative to these 1x concentrations to concisely indicate the changes in either the substrate or cofactor concentration. The highest 5x concentration of 5,10 - […]
5x concentration of total dUMP was not limited by solubility, although increases were performed in the same increments as 5,10-mTHF for comparison and 0.06% of the [5-3H]dUMP tracer was maintained at all concentrations. The remaining components in each 200 µL reaction were consistent in all reactions and included 2 µg of purified human TYMS in 50 mM KH2PO4 (Sigma Aldrich, Cat # P0662) and 100 mM β- mercaptoethanol (Sigma Aldrich, Cat # M7522). Control antifolate inhibitor PEM (Sigma Aldrich, Cat # PHR1596) was performed for reference of a TYMS specific classical antifolate and to […]
Human TYMS and DHFR preparation
Human Thymidylate Synthase (hTYMS) and human Dihydrofolate Reductase (hDHFR) were both expressed in BL21 (DE3) E. coli cells, using a standard BL21 transformation protocol, with the expression vector pQE80L-hTYMS (gift from Maria Paola Costi, University of Modena and Reggio Emilio, Italy) and pET100/D- TOPO (Invitrogen, Cat # K10001), respectively. Both vectors contained an N-terminal 6x Histidine tag attached to either hTYMS or hDHFR. After bacterial transformation, cells

The mark [2] stands for this setting: TS preincubated with drug, Figure 7.

T2 sequence (P04818 whole entry): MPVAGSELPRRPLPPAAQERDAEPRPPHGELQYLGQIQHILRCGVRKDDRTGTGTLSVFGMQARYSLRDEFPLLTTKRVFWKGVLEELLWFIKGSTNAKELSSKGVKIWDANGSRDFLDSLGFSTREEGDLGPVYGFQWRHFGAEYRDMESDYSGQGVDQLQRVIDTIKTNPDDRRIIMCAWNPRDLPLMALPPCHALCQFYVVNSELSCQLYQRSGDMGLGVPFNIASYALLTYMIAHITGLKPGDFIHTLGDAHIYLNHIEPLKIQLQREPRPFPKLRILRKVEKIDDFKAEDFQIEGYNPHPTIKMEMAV
Procedure for DHFR: DHFR assay kit (Sigma Aldrich, Cat # CS0340) as described by the manufacturer. 0.1-unit DHFR
analogues or control drugs, 6 μL NADPH Cat # N6505 solution and 5 μl of dihydrofolic acid (DHFR
substrate) (Sigma, Cat # D7006). The reaction was then read on the spectrophotometer at 340 nm at
22 °C every 15 seconds for 2.5 minutes.

Regarding `CCc1nc(N)nc(N)c1-c1ccc(N(C)Cc2ccc3c(c2)OCO3)c([N+](=O)[O-])c1` [Compound 19-S7], the “DHFR activity, comparison at reduced drug concentrations” value on DHFR was “potent TYMS and DHFR inhibition”. Also, in data set [1], the Bioluminescence photon flux entry is on record as “reduced bioluminescence photon flux”; the Body weight entry is on record as “did not show adverse effects on or declines in body weight”; the “Final excised tumor mass” value was “reduced mass of the final excised tumors”; the Tumor volume entry was “reduced and stable tumor volumes”. Besides, the “Mechanism of TYMS inhibition” value at purified human TYMS is listed as “blocking the folate-binding site”. Besides, at purified human TYMS (setting [2]), the “dUMP conversion with increasing 5,10-mTHF concentration” value was “increased the amount of dUMP conversion” and the “dUMP conversion with increasing dUMP concentration” value is listed as “the amount of dUMP conversion did not increase”.
